Measurements as given in patent US9695198B2, “Factor IXa inhibitors” (MERCK SHARP & DOHME CORP., priority 2012, dated 2017).
Where two headings read alike, the source gives them in different places.

Target: Factor IXa (Homo sapiens, UniProt P00740)
Test: Determination of inhibitory activity against Factor IXa (cleavage of fluorescent peptide CH3SO2-D-CHG-Gly-Arg-AFC)
Format: biochemical
Details: low enzyme format, read-out: FIXa Low Enzyme
Protocol: Determination of Inhibitory Activity Against Factor IXa
Formation of a clot to stem bleeding at a site of blood vessel injury involves the coordinated activity of a group of plasma proteins that initiate and propagate fibrin formation and subsequently protect fibrin from premature degradation. Factor IX is a key component of the plasma system that forms a fibrin clot at a site of vascular injury. The activity of Factor IXa is measured by monitoring the cleavage of the fluorescent peptide, CH3SO2-D-CHG-Gly-Arg-AFC.AcOH (“CHG” is cyclohexyl-glycine and “AFC” is trifluoro aminomethyl coumarin). Factor IXa cleaves the amide bond between Arg and AFC, thereby releasing the AFC fluorophore. The free AFC can be detected with a fluorescence detector at an excitation wavelength of 405 nm and emission wavelength of 510 nm.

Sequence of Factor IXa (P00740 227-461 limits assumed): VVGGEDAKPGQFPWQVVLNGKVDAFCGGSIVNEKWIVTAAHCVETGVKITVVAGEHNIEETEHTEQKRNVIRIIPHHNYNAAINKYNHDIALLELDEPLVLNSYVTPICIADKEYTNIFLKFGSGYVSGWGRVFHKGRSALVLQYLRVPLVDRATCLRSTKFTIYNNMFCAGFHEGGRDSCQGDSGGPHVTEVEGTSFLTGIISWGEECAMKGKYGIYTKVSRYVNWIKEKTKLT
Sequence of Factor IXa (P00740 47-191 partner limits assumed): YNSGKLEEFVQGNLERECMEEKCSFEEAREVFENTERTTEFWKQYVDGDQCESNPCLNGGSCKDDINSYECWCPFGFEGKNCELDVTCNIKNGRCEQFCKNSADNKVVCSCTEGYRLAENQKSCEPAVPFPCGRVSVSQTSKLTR

SMILES: Nc1nsc2c1ccc1[nH]c([C@H](O)[C@H]3OCCN(c4cccc(C5CC5)n4)C3=O)nc(=O)c12 [Example 20, (R)-2-((S)-(3-Amino-9-oxo-6,9-dihydroisothiazolo[5,4-f]quinazolin-7-yl)(hydroxy)methyl)-4-(6-cyclopropylpyridin-2-yl)morpholin-3-one]
- IC50 (Factor IXa Inhibition table): 88.6 nM

SMILES: CC(C)(O)c1cccc(N2CCO[C@H]([C@@H](O)c3nc(=O)c4c(ccc5c(N)nsc54)[nH]3)C2=O)n1 [Example 21, (R)-2-((S)-(3-Amino-9-oxo-6,9-dihydroisothiazolo[5,4-f]quinazolin-7-yl)(hydroxy)methyl)-4-(6-(2-hydroxypropan-2-yl)pyridin-2-yl)morpholin-3-one]
- IC50 (Factor IXa Inhibition table): 12.3 nM

SMILES: CC(C)(O)c1nc(N2CCO[C@H]([C@@H](O)c3nc(=O)c4c(ccc5c(N)nsc54)[nH]3)C2=O)ccc1C(F)(F)F [Example 22, (R)-2-((S)-(3-Amino-9-oxo-6,9-dihydroisothiazolo[5,4-f]quinazolin-7-yl)(hydroxy)methyl)-4-(6-(2-hydroxypropan-2-yl)-5-(trifluoromethyl)pyridin-2-yl)morpholin-3-one]
- IC50 (Factor IXa Inhibition table): 25.6 nM

SMILES: CC(=O)OC1(c2cccc(N3CCO[C@H]([C@@H](O)c4nc(=O)c5c(ccc6c(N)nsc65)[nH]4)C3=O)n2)CCC1 [Example 23, 1-(6-((R)-2-((S)-(3-Amino-9-oxo-6,9-dihydroisothiazolo[5,4-f]quinazolin-7-yl)(hydroxy)methyl)-3-oxomorpholino)pyridin-2-yl)cyclobutyl acetate]
- IC50 (Factor IXa Inhibition table): 31.5 nM

SMILES: Nc1nsc2c1ccc1[nH]c([C@H](O)[C@H]3OCCN(c4cccc(C5(O)CCC5)n4)C3=O)nc(=O)c12 [Example 24, (R)-2-((S)-(3-Amino-9-oxo-6,9-dihydroisothiazolo[5,4-f]quinazolin-7-yl)(hydroxy)methyl)-4-(6-(1-hydroxycyclobutyl)pyridin-2-yl)morpholin-3-one]
- IC50 (Factor IXa Inhibition table): 24.8 nM

SMILES: Nc1nsc2c1ccc1[nH]c([C@H](O)[C@H]3OCCN(c4cccc(C(O)C(F)(F)F)n4)C3=O)nc(=O)c12 (stereo partly drawn) [Example 25, (2R)-2-((S)-(3-Amino-9-oxo-6,9-dihydroisothiazolo[5,4-f]quinazolin-7-yl)(hydroxy)methyl)-4-(6-(2,2,2-trifluoro-1-hydroxyethyl)pyridin-2-yl)morpholin-3-one]
- IC50 (Factor IXa Inhibition table): 11.8 nM

SMILES: CC(O)(c1cccc(N2CCO[C@H]([C@@H](O)c3nc(=O)c4c(ccc5c(N)nsc54)[nH]3)C2=O)n1)C(F)(F)F (stereo partly drawn) [Example 26, (2R)-2-((S)-(3-Amino-9-oxo-6,9-dihydroisothiazolo[5,4-f]quinazolin-7-yl)(hydroxy)methyl)-4-(6-(1,1,1-trifluoro-2-hydroxypropan-2-yl)pyridin-2-yl)morpholin-3-one]
- IC50 (Factor IXa Inhibition table): 19.3 nM

SMILES: Nc1nccc2cc3[nH]c([C@H](O)[C@H]4OCCN(c5ccn(-c6ccncc6)n5)C4=O)nc(=O)c3cc12 [Example 28, (R)-2-((S)-(6-Amino-4-oxo-1,4-dihydropyrido[3,4-g]quinazolin-2-yl)(hydroxy)methyl)-4-(1-(pyridin-4-yl)-1H-pyrazol-3-yl)morpholin-3-one]
- IC50 (table of additional examples): 27.6 nM
